Reference: ChEMBL document CHEMBL1147725, “Identification and biological characterization of 6-aryl-7-isopropylquinazolinones as novel TRPV1 antagonists that are effective in models of chronic pain” (J Med Chem, 2006)

Molecular target: Transient receptor potential cation channel subfamily V member 1 (Homo sapiens, UniProt Q8NER1)
Experiment: Inhibition of calcium influx evoked by capsaicin in human TRPV1 expressing cells by fluorescence assay
Format: functional

Transient receptor potential cation channel subfamily V member 1, sequence (Q8NER1 whole entry): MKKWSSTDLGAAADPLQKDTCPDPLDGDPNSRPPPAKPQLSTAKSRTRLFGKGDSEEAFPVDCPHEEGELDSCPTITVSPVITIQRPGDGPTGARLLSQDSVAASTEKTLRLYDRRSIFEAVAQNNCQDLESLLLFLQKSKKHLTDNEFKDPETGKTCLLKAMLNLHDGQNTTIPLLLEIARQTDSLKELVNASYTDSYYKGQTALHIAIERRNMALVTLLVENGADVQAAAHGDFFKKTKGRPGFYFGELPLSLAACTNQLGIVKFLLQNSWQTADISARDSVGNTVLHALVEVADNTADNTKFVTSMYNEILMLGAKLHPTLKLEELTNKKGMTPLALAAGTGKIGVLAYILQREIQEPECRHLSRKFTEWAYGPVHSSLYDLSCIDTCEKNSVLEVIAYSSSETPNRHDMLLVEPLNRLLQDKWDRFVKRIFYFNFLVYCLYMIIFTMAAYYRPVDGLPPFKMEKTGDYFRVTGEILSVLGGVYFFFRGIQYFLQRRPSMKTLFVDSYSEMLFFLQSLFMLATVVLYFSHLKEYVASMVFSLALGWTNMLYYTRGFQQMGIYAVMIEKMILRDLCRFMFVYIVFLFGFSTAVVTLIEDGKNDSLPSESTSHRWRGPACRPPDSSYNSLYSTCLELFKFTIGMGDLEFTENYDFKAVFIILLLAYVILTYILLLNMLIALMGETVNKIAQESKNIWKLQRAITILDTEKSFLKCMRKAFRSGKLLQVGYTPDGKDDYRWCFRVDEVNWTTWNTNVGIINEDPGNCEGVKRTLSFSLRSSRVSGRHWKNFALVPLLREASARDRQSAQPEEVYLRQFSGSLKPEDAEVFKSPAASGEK

IC50: 100 nM
SMILES: COc1cc(Cl)cc(-c2cc3c(O)nc(C)nc3cc2C(C)C)c1
